The values below come from patent publication US11696922B2, “Nanoparticle to target cancer” (Georgetown University, priority 2016, dated 2023).

This data set relates to gastrin mRNA. Put plainly: Gastrin mRNA decrease by gastrin siRNA si286. The format is cell-based.

With “GUGCUGAGGAUGAGAACUA (listed as RNA, chemistry not given here) [si286]”, the “decrease of gastrin mRNA” value came out at 90%.
